Experimental data reported in patent US20070128217A1 (priority 2003, published 2007).

Assays:
[1] = tested on: antibodies in sera from SARS patients (sera 1a, 1b, 2, 6, 37, 62, London, SARS-yellow, SARS-green); assay type: binding, human; set-up: Binding of serum 6 to linear peptides of protein X1 of SARS-CoV Urbani / Binding of serum 37 to linear peptides of protein X1 of SARS-CoV Urbani / Binding of serum 6 to looped/cyclic peptide (PEPSCAN-ELISA) / Binding of serum 37 to looped/cyclic peptide (PEPSCAN-ELISA) / Binding of serum 37 to looped/cyclic peptides of protein X1 of SARS-CoV Urbani / Binding of serum 6 to linear peptides of protein X2 / Binding of serum 37 to linear peptides of protein X2 / Binding of serum 37 to looped/cyclic peptides of protein X2 of SARS-CoV Urbani / Binding of serum 6 to linear peptides of protein M of SARS-CoV Urbani / Binding of serum 37 to linear peptides of protein M of SARS-CoV Urbani / Binding of serum 6 to looped/cyclic peptides of protein M of SARS-CoV Urbani / Binding of serum 37 to looped/cyclic peptides of protein M of SARS-CoV Urbani / Binding of serum 6 to linear peptides of protein X3 of SARS-CoV Urbani / Binding of serum 37 to linear peptides of protein X3 of SARS-CoV Urbani / Binding of serum 37 to looped/cyclic peptides of protein X3 of SARS-CoV Urbani / Binding of serum 6 to linear peptides of protein X4 of SARS-CoV Urbani / Binding of serum 37 to linear peptides of protein X4 of SARS-CoV Urbani / Binding of serum 37 to looped/cyclic peptides of protein X4 of SARS-CoV Urbani / Binding of serum 6 to linear peptides of protein X5 of SARS-CoV Urbani / Binding of serum 37 to linear peptides of protein X5 of SARS-CoV Urbani / Binding of serum 37 to looped/cyclic peptides of protein X5 of SARS-CoV Urbani / Binding of serum 6 to linear peptides of protein N of SARS-CoV Urbani / Binding of serum 37 to linear peptides of protein N of SARS-CoV Urbani / Binding of serum 6 to linear peptide (PEPSCAN-ELISA) / Binding of serum 1a to looped/cyclic peptides of protein N of SARS-CoV Urbani / Binding of serum 1b to looped/cyclic peptides of protein N of SARS-CoV Urbani / Binding of serum 2 to looped/cyclic peptides of protein N of SARS-CoV Urbani / Binding of serum 6 to looped/cyclic peptides of protein N of SARS-CoV Urbani / Binding of serum 37 to looped/cyclic peptides of protein N of SARS-CoV Urbani / Binding of serum 62 to looped/cyclic peptides of protein N of SARS-CoV Urbani / Binding of serum London to looped/cyclic peptides of protein N of SARS-CoV Urbani / Binding of serum SARS-green to looped/cyclic peptides of protein N of SARS-CoV Urbani: unit not given here
[2] = tested on: control sera (pooled serum of ten healthy LUMC hospital workers; commercial negative donor pooled serum from the Dutch bloodbank); assay type: binding, human; set-up: Binding of Control serum LUMC to linear peptides / Binding of Control serum Blood-bank to linear peptides / Binding of Control serum LUMC to looped peptides / Binding of Control Serum Blood-Bank to Looped peptides / Binding of Control serum LUMC to linear peptides of the protein M of SARS-CoV Urbani / Binding of Control serum Blood-bank to linear peptides of the protein M of SARS-CoV Urbani / Binding of Control serum LUMC to looped peptides of the protein M of SARS-CoV Urbani / Binding of Control Serum Blood-Bank to Looped peptides of the protein M of SARS-CoV Urbani: unit not given here
[3] = tested on: rabbit serum obtained by immunizing a rabbit with the SARS-CoV strain Frankfurt 1; assay type: binding; set-up: Binding of a rabbit serum to linear peptides / Binding of a rabbit serum to looped peptides / Rabbit serum linear peptides / Rabbit serum looped peptides / Binding of a rabbit serum to linear peptides of protein N of SARS-CoV Urbani (Rabbit serum linear peptides) / Binding of a rabbit serum to looped/cyclic peptides of protein N of SARS-CoV Urbani (Rabbit serum looped peptides): unit not given here
[4] = tested on: recombinant human anti-SARS-CoV antibody 03-018; assay type: binding; set-up: Binding of antibody 03-018 to linear peptides of the N protein of SARS-CoV Urbani / Binding of antibody 03-018 to looped/cyclic peptides of the N protein of SARS-CoV Urbani: unit not given here

Row | Sequence | Binding of serum 1a to looped/cyclic peptides of protein N of SARS-CoV Urbani [1] | Binding of serum 1b to looped/cyclic peptides of protein N of SARS-CoV Urbani [1] | Binding of serum 2 to looped/cyclic peptides of protein N of SARS-CoV Urbani [1] | Binding of serum 6 to looped/cyclic peptides of protein N of SARS-CoV Urbani [1] | Binding of serum 37 to looped/cyclic peptides of protein N of SARS-CoV Urbani [1] | Binding of serum 62 to looped/cyclic peptides of protein N of SARS-CoV Urbani [1] | Binding of serum London to looped/cyclic peptides of protein N of SARS-CoV Urbani [1] | Binding of serum SARS-green to looped/cyclic peptides of protein N of SARS-CoV Urbani [1] | Binding of serum SARS-yellow to looped/cyclic peptides of protein N of SARS-CoV Urbani [1] | Binding of a rabbit serum to linear peptides of protein N of SARS-CoV Urbani (Rabbit serum linear peptides) [3] | Binding of a rabbit serum to looped/cyclic peptides of protein N of SARS-CoV Urbani (Rabbit serum looped peptides) [3] | Binding of antibody 03-018 to linear peptides of the N protein of SARS-CoV Urbani [4] | Binding of antibody 03-018 to looped/cyclic peptides of the N protein of SARS-CoV Urbani [4] | other results
1 | RGNSPARMASGGGET | 0.4 | 0.3 | 0.4 | 0.3 | 0.4 | 0.4 | 0.8 | 0.1 | 0.1 | 0.1 | 0.2 | 0.1 | 0.2 | Binding of serum 1a to linear peptide (PEPSCAN-ELISA) [1]: 0.3; Binding of serum 1b to linear peptide (PEPSCAN-ELISA) [1]: 0.1; Binding of serum 2 to linear peptide (PEPSCAN-ELISA) [1]: 0.2; Binding of serum 6 to linear peptide (PEPSCAN-ELISA) [1]: 0.2; Binding of serum 37 to linear peptide (PEPSCAN-ELISA) [1]: 0.5; Binding of serum 62 to linear peptide (PEPSCAN-ELISA) [1]: 0.5; Binding of serum London to linear peptide (PEPSCAN-ELISA) [1]: 0.5; Binding of serum SARS-green to linear peptide (PEPSCAN-ELISA) [1]: 0.1; Binding of serum SARS-yellow to linear peptide (PEPSCAN-ELISA) [1]: 0.5; Binding of Control Serum Blood-Bank to Looped peptides [2]: 0.6; Binding of Control serum Blood-bank to linear peptides [2]: 0.8; Binding of Control serum LUMC to linear peptides [2]: 0.7; Binding of Control serum LUMC to looped peptides [2]: 0.5
2 | ILLNKHIDAYKTFPP | 0.4 | 0.3 | 0.5 | 0.3 | 0.7 | 0.7 | 0.5 | 0.5 | 0.7 | 0.2 | 0.6 | 0.1 | 0.2 | Binding of serum 1a to linear peptides of protein N of SARS-CoV Urbani [1]: 0.2; Binding of serum 1b to linear peptides of protein N of SARS-CoV Urbani [1]: 0.1; Binding of serum 2 to linear peptides of protein N of SARS-CoV Urbani [1]: 0.2; Binding of serum 6 to linear peptides of protein N of SARS-CoV Urbani [1]: 0.2; Binding of serum 37 to linear peptides of protein N of SARS-CoV Urbani [1]: 0.7; Binding of serum 62 to linear peptides of protein N of SARS-CoV Urbani [1]: 0.7; Binding of serum London to linear peptides of protein N of SARS-CoV Urbani [1]: 0.5; Binding of serum SARS-green to linear peptides of protein N of SARS-CoV Urbani [1]: 0.3; Binding of serum SARS-yellow to linear peptides of protein N of SARS-CoV Urbani [1]: 0.5; Control Serum Blood-Bank Looped peptides [2]: 0.6; Control serum Blood-bank linear peptides [2]: 0.7; Control serum LUMC linear peptides [2]: 0.7; Control serum LUMC looped peptides [2]: 0.7
